According to patent US9340559B2, “Proteasome inhibitor delanzomib for use in the treatment of lupus” (Cephalon, Inc., priority 2011, dated 2016):

What was measured:
MRL/lpr mice [1] = assay: Survival / mortality, MRL/lpr mice (Example 1); conditions: for EOS survival, true EOS mouse percentage from starting population: vehicle 92
Description: Six week old lupus-prone, female, MRL/lpr (Jackson Labs, #000485) and non-lupus prone control MRL/MpJ (Jackson Labs, #000486) mice are obtained from Jackson Laboratories (Bar Harbor, Me.) at 6-weeks of age. All mice are maintained on a 24 hour light/dark cycle, with food and water available ad libitum. All experimental animal procedures are approved by and in accordance to the regulations of the Institutional Animal Care and Use Committee (IACUC) of Cephalon, Inc; approved IACUC protocol #03-040 and #03-03-041.
Due to this impaired tolerance mechanism, a percentage of all T and B cells that enter the periphery have a high likelihood of responding to self protein/tissues and thus initiate autoimmunity early in life. The MRL/lpr model mice develop several chronic inflammatory disease-like symptoms that are characteristic of early and late lupus including the generation of anti-nuclear antibodies, arthritis, dermatological manifestations, immunocomplex-mediated glomerulonephritis leading to proteinuria and eventual death. Lesser characterized phenomenon are CNS and cardiac manifestations, both of which are more common in humans. […] Mortality is higher in the females and occurs around 25 weeks of age, renal disease includes glomerulonephritis, glomerular infiltrates, sclerosis and vasculitis. Both splenomegaly and lymphomegaly associated with dermatitis can also be observed.
MRL/lpr mice are first randomized, initial bleeds collected, and body weights recorded for baseline measurements (FIG. 1). All mice are individually ear tagged and are monitored throughout the entire experiment (e.g., “Group#-Cage letter-Mouse#”, so “3B5”=Group 3 (G3), cage B, mouse #5). Mice are age-matched and treatment started at 6-8 weeks of age. Cheek bleeds and urine collection continues weekly throughout the experiment. Mice are individually tracked for several parameters including cytokine and ANA levels, proteinuria, body mass, lymphomegaly, general health, and mortality. All parameters are evaluated bi-monthly except mortality which is monitored daily. All groups consist of a minimum of at least 10-12 mice per group. Ex vivo experiments include flow cytometry analyses for plasma cells, serum complement C3 and ANA levels; urine protein and leukocytes, serum cytokine profiling, renal histo pathology, and determination of compound levels (pharmacokinetics (PK)) in the spleen, kidney and plasma. Mice are tracked on an individual basis. For all data, mice are grouped into populations and data graphed as mean±SEM. End-stage readouts are analyzed as described in the MATERIALS AND METHODS section (above) and in FIG. 1.
Vehicle alone is provided orally twice weekly (p.o.). Both proteasome inhibitors are suspended in the vehicle solution. Bi-monthly bleeds and urine are collected and frozen at […] until assayed. End analyses include kidney histology, splenocyte B-cell Elispots, flow cytometry for B and T cell populations, PD markers, serum cytokines, antibody and complement levels. In addition, urine proteinuria is determined for all animals.
In group two (G2), COMPOUND A was administered at a dose of 3 mg/kg iv twice weekly. In group three (G3), COMPOUND A was administered at a dose of 10 mg/kg p.o. twice weekly. […] In the new group five (G5), bortezomib was administered at a dose of 0.3 mg/kg iv twice weekly. Dexamethasone was administered at a dose of 1.5 mg/kg/2d (M, W, F) ip. Vehicle was 3% DMSO/10% Solutol/87% PBS. In those instances in which mice could not be injected via the iv route, agents were administered ip as noted in Table 1.

MRL/lpr mice [2] = assay: Lymphomegaly (enlarged lymph nodes), MRL/lpr mice; format: in vivo, mouse; conditions: for lymphomegaly decrease compared to vehicle: iv
Description: FIG. 4 depicts lymphomegaly for MRL/lpr mice across treatment groups for the study duration. MRL/lpr mice were treated as outlined in the legend. Lymphomegaly or presence of enlarged lymph nodes were observed weekly and noted.
Mice are tracked on an individual basis.
Vehicle alone is provided orally twice weekly (p.o.). Both proteasome inhibitors are suspended in the vehicle solution. […] In addition, urine proteinuria is determined for all animals.
Vehicle was 3% DMSO/10% Solutol/87% PBS.

NZM mice = format: in vivo, mouse

CC(C)C[C@H](NC(=O)[C@@H](NC(=O)c1cccc(-c2ccccc2)n1)[C@@H](C)O)B(O)O [COMPOUND A, [(1R)-1-[[(2S,3R)-3-hydroxy-2-[6-phenyl-pyridine-2-carbonyl)amino]-1-oxobutyl]amino]-3-methylbutylboronic acid]
increase in survival over that of vehicle (MRL/lpr mice [1]; 0.3 mg/kg iv twice weekly regimen (so in the source)): 8.4% | increase in survival over that of vehicle (MRL/lpr mice [1]; 0.3 mg/kg once weekly regimen (so in the source)): 5% | increase in survival over that of vehicle (MRL/lpr mice [1]; 10 mg/kg oral, twice weekly regimen): 8.4% | EOS survival, true EOS mouse percentage from starting population (MRL/lpr mice [1]; G1: 3 mg/kg iv, 1× wk): 87% | EOS survival, true EOS mouse percentage from starting population (MRL/lpr mice [1]; G2: 3 mg/kg iv, 2× wk): 100% | EOS survival, true EOS mouse percentage from starting population (MRL/lpr mice [1]; G3: 10 mg/kg po, 2× wk): 100% | animal mortality (mice dead out of total) (MRL/lpr mice [1]; initial G1 dose 4 mg/kg iv once weekly, at day 71): 4 out of 15 | AUC lymphomegaly, percent of non enlarged lymph nodes relative to vehicle (MRL/lpr mice [2]; G1: 3 mg/kg iv, 1× wk): 71% | AUC lymphomegaly, percent of non enlarged lymph nodes relative to vehicle (MRL/lpr mice [2]; G2: 3 mg/kg iv, 2× wk): 34% | AUC lymphomegaly, percent of non enlarged lymph nodes relative to vehicle (MRL/lpr mice [2]; G3: 10 mg/kg po, 2× wk): 9% | lymphomegaly decrease compared to vehicle (MRL/lpr mice [2]; first value (G1: 3 mg/kg 1× wk)): 71% | lymphomegaly decrease compared to vehicle (MRL/lpr mice [2]; second value (G2: 3 mg/kg 2× wk)): 34% | p, serum IL-12p40/p70 concentration vs G5 Bortezomib 0.3 mg/kg 1× wk ip (NZM mice; G1 3 mg/kg 1× wk ip): NS (NS = not significant (p > 0.05)) | p, serum IL-12p40/p70 concentration vs G6 Bortezomib 0.3 mg/kg 2× wk ip (NZM mice; G1 3 mg/kg 1× wk ip): NS (NS = not significant (p > 0.05)) | p, serum IL-12p40/p70 concentration vs G7 CTX 50 mg/kg 1× wk ip (NZM mice; G1 3 mg/kg 1× wk ip): NS (NS = not significant (p > 0.05)) | p, serum IL-12p40/p70 concentration vs G8 Dex 1.5 mg/kg 3× wk ip (NZM mice; G1 3 mg/kg 1× wk ip): NS (NS = not significant (p > 0.05)) | p, serum IL-12p40/p70 concentration vs G9 Vehicle 1× wk ip (NZM mice; G1 3 mg/kg 1× wk ip): p < 0.001 | p, serum IL-13 concentration vs G5 Bortezomib 0.3 mg/kg 1× wk ip (NZM mice; G1 3 mg/kg 1× wk ip): NS (NS = not significant (p > 0.05)) | p, serum IL-13 concentration vs G6 Bortezomib 0.3 mg/kg 2× wk ip (NZM mice; G1 3 mg/kg 1× wk ip): NS (NS = not significant (p > 0.05)) | p, serum IL-13 concentration vs G7 CTX 50 mg/kg 1× wk ip (NZM mice; G1 3 mg/kg 1× wk ip): p < 0.001 | p, serum IL-13 concentration vs G8 Dex 1.5 mg/kg 3× wk ip (NZM mice; G1 3 mg/kg 1× wk ip): NS (NS = not significant (p > 0.05)) | p, serum IL-13 concentration vs G9 Vehicle 1× wk ip (NZM mice; G1 3 mg/kg 1× wk ip): NS (NS = not significant (p > 0.05)) | p, serum IL-17A concentration vs G5 Bortezomib 0.3 mg/kg 1× wk ip (NZM mice; G1 3 mg/kg 1× wk ip): NS (NS = not significant (p > 0.05)) | p, serum IL-17A concentration vs G6 Bortezomib 0.3 mg/kg 2× wk ip (NZM mice; G1 3 mg/kg 1× wk ip): p < 0.01 | p, serum IL-17A concentration vs G7 CTX 50 mg/kg 1× wk ip (NZM mice; G1 3 mg/kg 1× wk ip): p < 0.001 | p, serum IL-17A concentration vs G8 Dex 1.5 mg/kg 3× wk ip (NZM mice; G1 3 mg/kg 1× wk ip): NS (NS = not significant (p > 0.05)) | p, serum IL-17A concentration vs G9 Vehicle 1× wk ip (NZM mice; G1 3 mg/kg 1× wk ip): NS (NS = not significant (p > 0.05)) | p, serum IP-10 concentration vs G5 Bortezomib 0.3 mg/kg 1× wk ip (NZM mice; G1 3 mg/kg 1× wk ip): NS (NS = not significant (p > 0.05)) | p, serum IP-10 concentration vs G6 Bortezomib 0.3 mg/kg 2× wk ip (NZM mice; G1 3 mg/kg 1× wk ip): NS (NS = not significant (p > 0.05)) | p, serum IP-10 concentration vs G7 CTX 50 mg/kg 1× wk ip (NZM mice; G1 3 mg/kg 1× wk ip): p < 0.001 | p, serum IP-10 concentration vs G8 Dex 1.5 mg/kg 3× wk ip (NZM mice; G1 3 mg/kg 1× wk ip): NS (NS = not significant (p > 0.05)) | p, serum IP-10 concentration vs G9 Vehicle 1× wk ip (NZM mice; G1 3 mg/kg 1× wk ip): NS (NS = not significant (p > 0.05)) | p, serum MIG concentration vs G5 Bortezomib 0.3 mg/kg 1× wk ip (NZM mice; G1 3 mg/kg 1× wk ip): NS (NS = not significant (p > 0.05)) | p, serum MIG concentration vs G6 Bortezomib 0.3 mg/kg 2× wk ip (NZM mice; G1 3 mg/kg 1× wk ip): NS (NS = not significant (p > 0.05)) | p, serum MIG concentration vs G7 CTX 50 mg/kg 1× wk ip (NZM mice; G1 3 mg/kg 1× wk ip): p < 0.001 | p, serum MIG concentration vs G8 Dex 1.5 mg/kg 3× wk ip (NZM mice; G1 3 mg/kg 1× wk ip): NS (NS = not significant (p > 0.05)) | p, serum MIG concentration vs G9 Vehicle 1× wk ip (NZM mice; G1 3 mg/kg 1× wk ip): NS (NS = not significant (p > 0.05)) | p, serum TNFα concentration vs G5 Bortezomib 0.3 mg/kg 1× wk ip (NZM mice; G1 3 mg/kg 1× wk ip): NS (NS = not significant (p > 0.05)) | p, serum TNFα concentration vs G6 Bortezomib 0.3 mg/kg 2× wk ip (NZM mice; G1 3 mg/kg 1× wk ip): NS (NS = not significant (p > 0.05)) | p, serum TNFα concentration vs G7 CTX 50 mg/kg 1× wk ip (NZM mice; G1 3 mg/kg 1× wk ip): NS (NS = not significant (p > 0.05)) | p, serum TNFα concentration vs G8 Dex 1.5 mg/kg 3× wk ip (NZM mice; G1 3 mg/kg 1× wk ip): p <0.001 | p, serum TNFα concentration vs G9 Vehicle 1× wk ip (NZM mice; G1 3 mg/kg 1× wk ip): NS (NS = not significant (p > 0.05)) | Cytokine IL-12 AUC, percent change vs vehicle (NZM mice; G1 3 mg/kg ip, 1× wk): −83% | Cytokine IL-13 AUC, percent change vs vehicle (NZM mice; G1 3 mg/kg ip, 1× wk): −27% | Cytokine IL-17A AUC, percent change vs vehicle (NZM mice; G1 3 mg/kg ip, 1× wk): −41% | Cytokine IP-10 AUC, percent change vs vehicle (NZM mice; G1 3 mg/kg ip, 1× wk): +17%
